These results are taken from US20210221866A1, “PROTEASE-RESISTANT LIPIDATED GLP-1 ANALOGS” (MEDIMMUNE LIMITED, priority 2015, published 2021).

The target in data set [1] is T1, recombinant Neprilysin (Homo sapiens, UniProt P08473).
T1 construct: purchased R&D Systems 1182-ZNC-010
The data set is described as follows: Proteolytic resistance to neprilysin (% remaining peptide, RP-HPLC AUC). The data set is classed as in vitro ADME. The note with it: t = 0 (baseline); 37° C., pH 8.3; enzyme:peptide ~1:33 for non-lipidated, ~1:2.5 for lipidated peptides.
Description: Ratio enzyme (units):peptide (moles) ˜1:33. […] Ratio enzyme (units):peptide (moles) ˜1:2.5.
15 μL aliquots (˜15 ng initial peptide) of the peptide-enzyme mixture were periodically withdrawn (t=0, 30 mins, 1 hr, 2 hr, 4 hr, 8 hr, 24 hr) and quenched immediately by addition to an equal volume (15 μL) of 5% TFA (v/v) in 1:1 water/acetonitrile to arrest proteolytic activity. 20 μL aliquots (˜10 ng initial peptide) were analyzed by LC/MS and/or analytical RP-HPLC as follows: LC/MS method: Agilent Polaris C8-A column (4.6×100 mm, 3 micron) eluted with a linear binary gradient of 10-90% MeCN (0.1% TFA v/v) in water (0.1% TFA v/v) over 30 mins at 1.5 mL min-1 at ambient temperature with detection by both UV absorption at 210 nm and ionization using a Waters 3100 mass detector (ESI+ mode). Peptide fragments deriving from enzymatic hydrolysis were identified by molecular weight, allowing location of the site of cleavage. Analytical RP-HPLC method: Agilent Polaris C8-A column (4.6×100 mm, 3 micron) eluted with a linear binary gradient of 10-90% MeCN (0.1% TFA v/v) in water (0.1% TFA v/v) over either 10 or 15 mins at 1.5 mL min^−1 at 40° C. with detection by UV absorption at 210 nm. Manual integration (AUC) allowed estimation of remaining intact peptide over the time course of the experiment.
25 μL aliquots (˜6 μg initial peptide) were analyzed by LC/MS and/or analytical RP-HPLC as follows: LC/MS method: Agilent Polaris C8-A column (4.6×100 mm, 3 micron) eluted with a linear binary gradient of 10-90% MeCN (0.1% TFA v/v) in water (0.1% TFA v/v) over 30 mins at 1.5 mL min^−1 at ambient temperature with detection by both UV absorption at 210 nm and ionization using a Waters 3100 mass detector (ESI^+ mode). Peptide fragments deriving from enzymatic hydrolysis were identified by molecular weight, allowing location of the site of cleavage. Analytical RP-HPLC method: Agilent Polaris C8-A column (4.6×100 mm, 3 micron) eluted with a linear binary gradient of 10-90% MeCN (0.1% TFA v/v) in water (0.1% TFA v/v) over either 10 or 15 mins at 1.5 mL min^−1 at 40° C. with detection by UV absorption at 210 nm. Manual integration (AUC) allowed estimation of remaining intact peptide over the time course of the experiment.

Data set [2] concerns the target T2, porcine pancreatic pepsin (Sus scrofa, UniProt P00791).
T2 construct: purchased Sigma P7012
Kind of data set: Proteolytic resistance to pepsin (% remaining intact peptide, RP-HPLC AUC). The data set is classed as in vitro ADME. The note with it: t = 0; 37° C., pH 2.0. The procedure: Pepsin: Lyophilized porcine pancreatic pepsin (Sigma: P7012) was reconstituted to afford a solution of 200 μg/mL (˜500 units/mL) in assay buffer (0.1 M HCl, pH 2.0) to give the enzyme stock solution. […] Ratio enzyme (units):peptide (moles) ˜1:6. […] Ratio enzyme (units):peptide (μmoles) ˜2:1.
Lyophilized porcine pancreatic pepsin (Sigma: P7012) was reconstituted to […] (˜500 units/mL) in assay buffer ([…], pH 2.0) to give the enzyme stock solution.

In data set [3] the target is porcine pancreatic trypsin (Sus scrofa, UniProt P00761). The data set is described as follows: Proteolytic resistance to trypsin (% remaining intact peptide, RP-HPLC AUC). The format is in vitro ADME. The note with it: t = 0; 37° C., pH 7.8.
porcine pancreatic trypsin, sequence (P00761 9-231): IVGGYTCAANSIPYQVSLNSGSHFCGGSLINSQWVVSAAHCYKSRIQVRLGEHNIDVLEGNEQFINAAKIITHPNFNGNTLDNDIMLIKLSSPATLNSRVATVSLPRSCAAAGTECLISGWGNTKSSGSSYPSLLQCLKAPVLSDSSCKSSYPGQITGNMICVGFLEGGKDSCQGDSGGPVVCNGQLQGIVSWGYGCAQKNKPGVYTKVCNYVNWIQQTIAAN
Description: Trypsin: Lyophilized porcine pancreatic trypsin (Sigma: T1426) was reconstituted to afford a solution of 100 μg/mL (˜300 units/mL) in assay buffer (50 mM Tris, 10 mM CaCl2), 150 mM NaCl, 1 mM HCl, adjusted to pH 7.8) to give the enzyme stock solution. […] Ratio enzyme (units):peptide (μmoles) ˜1:11. […] Ratio enzyme (units):peptide (μ moles) ˜1.2:1.
Lyophilized porcine pancreatic trypsin (Sigma: T7409) was reconstituted to 200 μg/mL (˜300 units/mL) in assay buffer (50 mM Tris, 10 mM CaCl2), 150 mM NaCl, 1 mM HCl, adjusted to pH 7.8) to give the enzyme stock solution. […] 15 μL aliquots (˜15 μg initial peptide) of the peptide-enzyme mixture were periodically withdrawn (t=0, 30 mins, 1 hr, 2 hr, 4 hr, 8 hr, 24 hr) and quenched immediately by addition to an equal volume (15 μL) of 5% TFA (v/v) in 1:1 water/acetonitrile to arrest proteolytic activity. 20 μL aliquots (˜10 μg initial peptide) were analysed by LC/MS and/or analytical RP-HPLC as follows: LC/MS method: Agilent Polaris C8-A column (4.6×100 mm, 3 micron) eluted with a linear binary gradient of 10-90% MeCN (0.1% TFA v/v) in water (0.1% TFA v/v) over 30 mins at 1.5 mL min^−1 at ambient temperature with detection by both UV absorption at 210 nm and ionization using a Waters 3100 mass detector (ESI^+ mode). Peptide fragments deriving from enzymatic hydrolysis were identified by molecular weight, allowing location of the site of cleavage. Analytical RP-HPLC method: Agilent Polaris C8-A column (4.6×100 mm, 3 micron) eluted with a linear binary gradient of 10-90% MeCN (0.1% TFA v/v) in water (0.1% TFA v/v) over either 10 or 15 mins at 1.5 mL min^−1 at 40° C. with detection by UV absorption at 210 nm. Manual integration (AUC) allowed estimation of remaining intact peptide over the time course of the experiment.
Lyophilized porcine pancreatic trypsin (Sigma: T7409) was reconstituted to 200 μg/mL (˜300 units/mL) in assay buffer (50 mM Tris, 10 mM CaCl2), 150 mM NaCl, 1 mM HCl, adjusted to pH 7.8) to give the enzyme stock solution. […] 25 μL aliquots (˜17 μg initial peptide) of the peptide-enzyme mixture were periodically withdrawn (t=0, 30 mins, 1 hr, 2 hr, 4 hr, 8 hr, 24 hr) and quenched immediately by addition to an equal volume (25 μL) of 5% TFA (v/v) in 1:1 water/acetonitrile to arrest proteolytic activity. 25 μL aliquots (˜8 μg initial peptide) were analysed by LC/MS and/or analytical RP-HPLC as follows: LC/MS method: Agilent Polaris C8-A column (4.6×100 mm, 3 micron) eluted with a linear binary gradient of 10-90% MeCN (0.1% TFA v/v) in water (0.1% TFA v/v) over 30 mins at 1.5 mL min^−1 at ambient temperature with detection by both UV absorption at 210 nm and ionization using a Waters 3100 mass detector (ESI^+ mode). Peptide fragments deriving from enzymatic hydrolysis were identified by molecular weight, allowing location of the site of cleavage. Analytical RP-HPLC method: Agilent Polaris C8-A column (4.6×100 mm, 3 micron) eluted with a linear binary gradient of 10-90% MeCN (0.1% TFA v/v) in water (0.1% TFA v/v) over either 10 or 15 mins at 1.5 mL min^−1 at 40° C. with detection by UV absorption at 210 nm. Manual integration (AUC) allowed estimation of remaining intact peptide over the time course of the experiment.
Data set [4] has as its system FASSIF/Pancreatin® activated with 100 μg/mL human enterokinase. The data set is described as follows: Proteolytic resistance to FASSIF/Pancreatin following full zymogen activation with enterokinase. As to conditions: t = 0; 37° C. The data set is classed as in vitro ADME. As for the experimental part:
A fresh suspension of FASSIF/P (Fasted-State Simulated Intestinal Fluid+USP Pancreatin®) was prepared according to that described by Galia, Nicolaides, Hörter, Lobenberg, Reppas and Dressman: Pharm. […] To the resulting preparation was added human enterokinase (100 μg/mL) to ensure the potential for full zymogen activity of the mixture which was used immediately without storage. Peptides for evaluation (1.0 mg, ˜250 nmoles) were initially dissolved in pre-warmed FASSIF without Pancreatin® (200 μL) to which was added pre-warmed fresh FASSIF/Pancreatin® ([…]) to initiate potential digestion. Following momentary vortexing of the Eppendorf reaction tube the mixture was incubated at 37° C. in a thermostatic waterbath for the duration of the experiment. 25 μL aliquots of the co-incubated peptide-enzyme mixture were periodically withdrawn (t=0, 5 m, 10 m, 15 m, 30 m, 1 h, 2 h) and quenched immediately by addition to a solution of 10% TFA in 1:1 water/acetonitrile (75 μL) to arrest proteolytic activity.

The target in data set [5] is T3, human glucagon receptor (GCGR) (Homo sapiens, UniProt P47871).
T3 construct: expressed in transfected cells; host or cells: HEK293 cells or CHO cells
T3 sequence (P47871 26-477): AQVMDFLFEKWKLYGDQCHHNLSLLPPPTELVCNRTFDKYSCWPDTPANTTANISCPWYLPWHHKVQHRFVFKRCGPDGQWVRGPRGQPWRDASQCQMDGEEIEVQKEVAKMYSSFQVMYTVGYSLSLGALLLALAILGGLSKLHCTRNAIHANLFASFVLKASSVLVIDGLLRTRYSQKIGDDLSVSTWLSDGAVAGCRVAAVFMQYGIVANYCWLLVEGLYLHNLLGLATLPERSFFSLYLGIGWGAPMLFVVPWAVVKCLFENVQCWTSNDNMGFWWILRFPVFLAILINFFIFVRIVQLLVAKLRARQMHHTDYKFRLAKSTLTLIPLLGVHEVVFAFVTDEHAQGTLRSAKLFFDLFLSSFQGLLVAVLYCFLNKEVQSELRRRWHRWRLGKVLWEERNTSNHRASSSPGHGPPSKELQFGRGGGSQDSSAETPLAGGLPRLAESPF
The data set is described as follows: cAMP assay, human GCGR cells. The format is cell-based. The note with it: Table 9, bis-lipidated peptides. Summed up: (§1)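 Peptide-stimulated cAMP measured by two-step HTRF after a 30 min room-temperature incubation with receptor-expressing cells (hGLP-1R, hGIPR at 1×10^5 cells/ml; hGCGR at 2×10^5 cells/ml). Duplicate dilutions; EC50 from 4-parameter logistic fit of % Delta F.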
(Cyclic AMP is a second messenger, typically raised through Gs and lowered through Gi signalling.)

Data set [6] deals with T4, human glucose-dependent insulinotropic peptide receptor (GIPR) (Homo sapiens, UniProt P48546).
T4 construct: expressed in transfected cells; host or cells: HEK293 cells or CHO cells
T4 sequence (P48546 22-466): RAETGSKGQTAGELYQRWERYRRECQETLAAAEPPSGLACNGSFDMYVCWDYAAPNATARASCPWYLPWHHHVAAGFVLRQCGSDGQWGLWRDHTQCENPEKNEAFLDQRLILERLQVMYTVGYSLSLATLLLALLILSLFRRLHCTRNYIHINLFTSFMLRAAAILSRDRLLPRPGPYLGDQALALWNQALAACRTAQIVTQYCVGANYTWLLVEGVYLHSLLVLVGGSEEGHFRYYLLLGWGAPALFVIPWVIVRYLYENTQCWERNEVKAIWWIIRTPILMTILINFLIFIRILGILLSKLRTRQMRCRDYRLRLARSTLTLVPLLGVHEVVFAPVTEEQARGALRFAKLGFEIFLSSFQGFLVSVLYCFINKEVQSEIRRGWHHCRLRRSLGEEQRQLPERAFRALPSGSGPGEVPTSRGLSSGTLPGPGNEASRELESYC
The data set is described as follows: cAMP assay, human GIPR cells. The note with it: Table 9, bis-lipidated peptides. The data set is classed as cell-based. Summed up: as §1

A short description of data set [7]: Proteolytic resistance to α-chymotrypsin (% remaining intact peptide, RP-HPLC AUC). The note with it: recombinant α-chymotrypsin in assay buffer, pH 7.8.
Description: (§3) Ratio enzyme (units):peptide (μmoles) ˜1:33. […] Ratio enzyme (units):peptide (μmoles) ˜1:2.5.
(§4) 15 μL aliquots (˜15 μg initial peptide) of the peptide-enzyme mixture are periodically withdrawn (t=0, 30 mins, 1 hr, 2 hr, 4 hr, 8 hr, 24 hr) and quenched immediately by addition to an equal volume (15 μL) of 5% TFA (v/v) in 1:1 water/acetonitrile to arrest proteolytic activity. 20 μL aliquots (˜10 μg initial peptide) are analysed by LC/MS and/or analytical RP-HPLC as follows: LC/MS method: Agilent Polaris C8-A column (4.6×100 mm, 3 micron) elutes with a linear binary gradient of 10-90% MeCN (0.1% TFA v/v) in water (0.1% TFA v/v) over 30 mins at 1.5 mL min^−1 at ambient temperature with detection by both UV absorption at 210 nm and ionization using a Waters 3100 mass detector (ESI^+ mode). Peptide fragments deriving from enzymatic hydrolysis are identified by molecular weight, allowing location of the site of cleavage. Analytical RP-HPLC method: Agilent Polaris C8-A column (4.6×100 mm, 3 micron) elutes with a linear binary gradient of 10-90% MeCN (0.1% TFA v/v) in water (0.1% TFA v/v) over either 10 or 15 mins at 1.5 mL min^−1 at 40° C. with detection by UV absorption at 210 nm. Manual integration (AUC) allows estimation of remaining intact peptide over the time course of the experiment.
(§5) 25 μL aliquots (˜6 μg initial peptide) are analysed by LC/MS and/or analytical RP-HPLC as follows: LC/MS method: Agilent Polaris C8-A column (4.6×100 mm, 3 micron) elutes with a linear binary gradient of 10-90% MeCN (0.1% TFA v/v) in water (0.1% TFA v/v) over 30 mins at 1.5 mL min^−1 at ambient temperature with detection by both UV absorption at 210 nm and ionization using a Waters 3100 mass detector (ESI±mode). Peptide fragments deriving from enzymatic hydrolysis are identified by molecular weight, allowing location of the site of cleavage. Analytical RP-HPLC method: Agilent Polaris C8-A column (4.6×100 mm, 3 micron) elutes with a linear binary gradient of 10-90% MeCN (0.1% TFA v/v) in water (0.1% TFA v/v) over either 10 or 15 mins at 1.5 mL min^−1 at 40° C. with detection by UV absorption at 210 nm. Manual integration (AUC) allows estimation of remaining intact peptide over the time course of the experiment.
The test system of data set [8] is recombinant α-chymotrypsin. The data set is described as above. As to conditions: t = 0; 37° C., pH 7.8.
Description: as §3, §4, §5
A short description of data set [9]: Proteolytic resistance to fasted-state simulated intestinal fluid (FASSIF/Pancreatin). The format is in vitro ADME. The note with it: 37° C., read-out: Percentage remaining intact peptide (AUC by RP-HPLC) upon incubation with fasted-state simulated intestinal fluid (FASSIF/P). As for the experimental part:
(§2) A fresh suspension of FASSIF/P (Fasted-State Simulated Intestinal Fluid+USP Pancreatin®) was prepared according to that described by Galia, Nicolaides, Hörter, Lobenberg, Reppas and Dressman: Pharm. Res. 15 (1998) 698-705. The resulting preparation is proteolytically equivalent to ˜375 units/mL (375 kU/L) and was used immediately without storage. Peptides for evaluation (1.0 mg, ˜250 nmoles) were initially dissolved in pre-warmed FASSIF without Pancreatin® (200 μL) to which was added pre-warmed fresh FASSIF/Pancreatin® (100 μL) to initiate potential digestion. Following momentary vortexing of the Eppendorf reaction tube the mixture was incubated at 37° C. in a thermostatic waterbath for the duration of the experiment. 25 μL aliquots of the co-incubated peptide-enzyme mixture were periodically withdrawn (t=0, 5 m, 10 m, 15 m, 30 m, 1 h, 2 h) and quenched immediately by addition to a solution of 10% TFA in 1:1 water/acetonitrile (75 μL) to arrest proteolytic activity.

For data set [10], the system named is FASSIF/P (Fasted-State Simulated Intestinal Fluid+USP Pancreatin®). Described as above. The format is in vitro ADME. As to conditions: t = 0; 37° C. The procedure: as §2
Data set [11] concerns the target T5, human GLP-1 receptor (GLP-1R) (Homo sapiens, UniProt P43220).
T5 construct: expressed in transfected cells; host or cells: HEK293 cells or CHO cells
The data set is described as follows: cAMP assay, human GLP-1R cells. The data set is classed as cell-based. The note with it: Table 9, bis-lipidated peptides. Summed up: as §1

The mark [12] stands for this setting: first replicate, read-out: Primary assay EC50 Gluc-R (n1).
Setting [13] is: second replicate, read-out: Primary assay EC50 Gluc-R (n2).
The mark [14] stands for this setting: first replicate, read-out: Primary assay EC50 GIP-R (n1).
Setting [15] is: second replicate, read-out: Primary assay EC50 GIP-R (n2).

Each structure is given as a SMILES string. Read-outs that look alike come from different tables or passages of the source. Numbered stars: 1 amine (or outer) side, 2 acyl side, 3 side chain; on linkers, the order of the positions; unused ones are H or OH. Square brackets hold non-standard residues; d marks the D form. Side chains are listed from the residue outwards. Peptide text beside a SMILES is read from it. * marks the point of attachment. γGlu = O=C(O)[C@H](CCC(=O)[*:2])N[*:1]; αMeF = C[C@](N)(Cc1ccccc1)C(=O)O; αMeK = C[C@](N)(CCCCN)C(=O)O; Lauroyl = CCCCCCCCCCCC(=O)*; αMeS = C[C@](N)(CO)C(=O)O; Nle = CCCC[C@H](N)C(=O)O; AEEA = NCCOCCOCC(=O)O; Aib = CC(C)(N)C(=O)O A value given as a limit tells only on which side of the number the result lay.

T5 sequence (P43220 24-463): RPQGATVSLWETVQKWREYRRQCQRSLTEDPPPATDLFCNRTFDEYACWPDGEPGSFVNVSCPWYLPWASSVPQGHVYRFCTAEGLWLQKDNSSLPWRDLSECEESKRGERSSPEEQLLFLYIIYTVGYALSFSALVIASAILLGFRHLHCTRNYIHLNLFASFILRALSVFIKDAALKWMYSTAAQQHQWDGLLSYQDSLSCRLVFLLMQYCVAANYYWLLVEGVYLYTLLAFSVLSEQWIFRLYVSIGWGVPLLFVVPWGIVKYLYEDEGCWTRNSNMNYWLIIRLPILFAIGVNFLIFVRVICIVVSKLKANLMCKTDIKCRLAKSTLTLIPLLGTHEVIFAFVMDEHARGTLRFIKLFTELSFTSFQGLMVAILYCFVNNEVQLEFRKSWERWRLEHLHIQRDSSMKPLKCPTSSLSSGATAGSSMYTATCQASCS
T1 sequence (P08473 whole entry): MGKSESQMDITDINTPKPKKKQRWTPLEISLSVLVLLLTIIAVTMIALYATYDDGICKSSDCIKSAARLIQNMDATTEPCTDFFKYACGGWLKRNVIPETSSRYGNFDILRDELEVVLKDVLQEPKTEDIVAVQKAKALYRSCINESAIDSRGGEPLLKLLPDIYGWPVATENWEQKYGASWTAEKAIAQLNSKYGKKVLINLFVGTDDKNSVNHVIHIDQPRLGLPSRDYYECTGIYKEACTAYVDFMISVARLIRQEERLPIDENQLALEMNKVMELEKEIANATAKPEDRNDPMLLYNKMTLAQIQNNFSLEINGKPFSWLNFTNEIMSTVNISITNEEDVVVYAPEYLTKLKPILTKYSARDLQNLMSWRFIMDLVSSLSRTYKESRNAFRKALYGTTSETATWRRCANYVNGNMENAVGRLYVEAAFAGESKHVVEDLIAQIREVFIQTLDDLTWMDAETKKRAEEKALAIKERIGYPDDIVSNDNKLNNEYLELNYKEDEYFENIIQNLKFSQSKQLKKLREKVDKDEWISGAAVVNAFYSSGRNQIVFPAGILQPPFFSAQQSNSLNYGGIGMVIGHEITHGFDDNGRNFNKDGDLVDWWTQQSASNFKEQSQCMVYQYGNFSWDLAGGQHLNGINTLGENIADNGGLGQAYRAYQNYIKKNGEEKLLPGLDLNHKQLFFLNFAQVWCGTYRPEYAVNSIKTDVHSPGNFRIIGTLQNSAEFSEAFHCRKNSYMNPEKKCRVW
T2 sequence (P00791 60-385): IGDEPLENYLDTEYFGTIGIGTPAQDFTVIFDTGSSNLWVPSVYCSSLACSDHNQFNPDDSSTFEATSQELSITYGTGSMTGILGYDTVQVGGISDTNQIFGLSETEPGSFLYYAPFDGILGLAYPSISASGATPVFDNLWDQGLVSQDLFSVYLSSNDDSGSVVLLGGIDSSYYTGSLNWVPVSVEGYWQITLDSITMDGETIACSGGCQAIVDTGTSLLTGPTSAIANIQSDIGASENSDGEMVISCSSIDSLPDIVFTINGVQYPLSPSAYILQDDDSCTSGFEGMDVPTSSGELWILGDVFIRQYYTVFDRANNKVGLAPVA

Regarding `CCCCCCCCCCCC(=O)N[C@@H](CCC(=O)NCCOCCOCC(=O)NCCOCCOCC(=O)NCCCC[C@H](NC(=O)[C@H](C)NC(=O)[C@@H](NC(=O)[C@H](Cc1ccccc1)NC(=O)[C@H](CCC(=O)O)NC(=O)[C@](C)(CCCCN)NC(=O)[C@H](C)NC(=O)[C@H](C)NC(=O)[C@H](CCC(=O)O)NC(=O)CNC(=O)[C@H](CCC(=O)O)NC(=O)[C@H](CCCCNC(=O)COCCOCCNC(=O)COCCOCCNC(=O)CC[C@H](NC(=O)CCCCCCCCCCC)C(=O)O)NC(=O)[C@H](Cc1ccc(O)cc1)NC(=O)[C@H](CO)NC(=O)[C@](C)(CO)NC(=O)[C@@H](NC(=O)[C@H](CC(=O)O)NC(=O)[C@H](CO)NC(=O)[C@@H](NC(=O)[C@](C)(Cc1ccccc1)NC(=O)[C@H](CO)NC(=O)CNC(=O)[C@H](CCC(=O)O)NC(=O)C(C)(C)NC(=O)[C@@H](N)Cc1c[nH]cn1)[C@@H](C)O)C(C)C)[C@@H](C)CC)C(=O)N[C@H](C(=O)N[C@H](C(=O)N[C@@H](CCC(=O)O)C(=O)NCC(=O)NCC(N)=O)C(C)C)C(C)C)C(=O)O` [compound 269] (H-H[Aib]EGS[αMeF]TSDV[αMeS]SYK([AEEA-AEEA-γGlu-Lauroyl])EGEAA[αMeK]EFIAK([AEEA-AEEA-γGlu-Lauroyl])VVEGG-NH2; N-terminus assumed), in data set [1], the “Percentage remaining peptide (AUC at specified time-point by RP-HPLC) upon incubation with neprilysin, t = 0” value was 100%. Besides, in data set [2], the “Percentage remaining intact peptide (AUC by RP-HPLC) upon incubation with pepsin” value is on record as 100%. In addition, the “Percentage remaining intact peptide (AUC by RP-HPLC) upon incubation with trypsin” value in data set [3] turned out to be 100%. For the same molecule, in data set [4], the “Percentage remaining intact peptide (AUC by RP-HPLC) upon incubation with FASSIF activated with 100 μg/mL enterokinase” value was 100%. The EC50 – broadly, the concentration needed to bring the measured effect to its halfway point – in [5] (setting [12]) was at least 22.8 nM. For the same molecule, in [5] (setting [13]), the EC50 is at least 22.8 nM. In data set [6] (setting [14]), the EC50 is at least 22.8 nM. Moreover, the EC50 in [6] (setting [15]) is at least 22.8 nM. For the same molecule, in data set [7], the remaining at 0.5 h is 97.1%, the remaining at 1 h came out at 95.8%, the remaining at 2 h is 96% and the remaining at 4 h worked out at 94.2%. Moreover, in [7], the remaining at 8 h worked out at 92.6% and the remaining at 24 h was 89.4%. In addition, in data set [8], the “Percentage remaining intact peptide (AUC by RP-HPLC) upon incubation with α-chymotrypsin” value is 100%.

Regarding `CCCCCCCCCCCC(=O)N[C@@H](CCC(=O)NCCOCCOCC(=O)NCCOCCOCC(=O)NCCCC[C@H](NC(=O)[C@H](C)NC(=O)[C@@H](NC(=O)[C@H](CCCC)NC(=O)[C@H](CCC(=O)O)NC(=O)[C@](C)(CCCCN)NC(=O)[C@H](C)NC(=O)[C@H](C)NC(=O)[C@H](CCC(=O)O)NC(=O)CNC(=O)[C@H](CCC(=O)O)NC(=O)[C@H](CC(C)C)NC(=O)[C@H](CCCCNC(=O)COCCOCCNC(=O)COCCOCCNC(=O)CC[C@H](NC(=O)CCCCCCCCCCC)C(=O)O)NC(=O)[C@H](CO)NC(=O)[C@](C)(CO)NC(=O)[C@@H](NC(=O)[C@H](CC(=O)O)NC(=O)[C@H](CO)NC(=O)[C@@H](NC(=O)[C@](C)(Cc1ccccc1)NC(=O)[C@H](CO)NC(=O)CNC(=O)[C@H](CCC(=O)O)NC(=O)C(C)(C)NC(=O)[C@@H](N)Cc1c[nH]cn1)[C@@H](C)O)C(C)C)[C@@H](C)CC)C(=O)N[C@H](C(=O)N[C@H](C(=O)N[C@@H](CCC(=O)O)C(=O)NCC(=O)NCC(N)=O)C(C)C)C(C)C)C(=O)O` [compound 407] (H-H[Aib]EGS[αMeF]TSDV[αMeS]SK([AEEA-AEEA-γGlu-Lauroyl])LEGEAA[αMeK]E[Nle]IAK([AEEA-AEEA-γGlu-Lauroyl])VVEGG-NH2; N-terminus assumed), the remaining at 5 min, […] in [9] (t = 5 m) is 86.2%. For the same molecule, the remaining at 10 min, […] in data set [9] (t = 10 m) was 72.9%. Moreover, in data set [9] (t = 15 m), the remaining at 0.25 h, […] was 60.3%. In data set [9] (t = 30 m), the remaining at 0.5 h, […] was 36.3%. The remaining at 1 h, […] in [9] (t = 1 h) is 16.2%. In addition, in data set [9] (t = 2 h), the remaining at 2 h, […] is 2.1%. For the same molecule, the “Percentage remaining intact peptide (AUC by RP-HPLC) upon incubation with fasted-state simulated intestinal fluid (FASSIF/P)” value in data set [10] is 100%. Also, the EC50 in data set [11] (mean of n1 and n2, read-out: Primary assay EC50 Mean pM GLP-1R) was 2 pM; in [11] (replicate n2, read-out: Primary assay EC50 GLP-1R n2) it was 2.01 pM; in data set [5] (setting [12]) it was at least 21.5 nM; in data set [5] (setting [13]), at least 21.5 nM; in data set [6] (setting [14]), at least 21.5 nM; in [6] (setting [15]), at least 21.5 nM.
